Data on 24 compounds can be found in article PMC4337820 (Journal of medicinal chemistry, 2015).

Where two headings read alike, the source gives them in different places. Where only a bound is given, the exact number is not on record here.

As a reminder, the Papp A→B is the apparent permeability from the apical to the basolateral side of a cell layer.

The test system of data set [1] is T. cruzi, strain Tulahuen C4 amastigotes. Description: In vitro activity against T. cruzi amastigotes. The class given is cell-based. The conditions noted are these: for antichagasic activity class (TDR criteria): T. cruzi amastigotes; for Bnz/comp: fold potency against T. cruzi relative to Bnz; for SI (IC50 in L6 cells/IC50 in T. cruzi): selectivity index vs L6 cells.

Data set [2] concerns T.b. rhodesiense, strain STIB 900 trypomastigotes. Kind of data set: In vitro activity against T. b. rhodesiense. The class given is cell-based. The conditions noted are these: for anti-HAT activity class (TDR criteria): BSF T. b. rhodesiense.
Data set [3] has as its system L6 cells (rat skeletal myoblasts). Kind of data set: Cytotoxicity in host L6 cells. The class given is cell-based.
The next data set has as its system Chagas disease. The conditions noted are these: cited from earlier work; for cure rates, chronic stage: adults in the chronic stage.
Data set [4] has as its system T.b. rhodesiense, strain STIB 900 trypomastigotes. The conditions noted are these: cited from earlier work.
Data set [5] concerns T. cruzi, strain Tulahuen C4 amastigotes. The conditions noted are these: cited from earlier work.
Data set [6] concerns L6 cells (rat skeletal myoblasts). The conditions noted are these: read-out: Cytotox. L6 IC-50; host L6 cells; cited from earlier work.
For data set [7] the following is noted: polar surface area, predicted; cited from earlier work.
The target in data set [8] is T1, T. cruzi CYP51 (Trypanosoma cruzi, UniProt Q7Z1V1). Description: Spectral titration binding to T. cruzi CYP51. The conditions noted are these: TcCYP51 spectral response.
Data set [9] addresses T1, T. cruzi CYP51. Description: Reconstituted CYP51 reaction inhibition. The class given is biochemical. The conditions noted are these: compound 19: at high I/E ratios (≥ 20).
Another data set relates to Caco-2 cells. Description: Caco-2 monolayer permeability. The conditions noted are these: 10 μM, 2 h. The class given is in vitro ADME. (Passage across Caco-2 layers is used to estimate intestinal permeability.)
In data set [10] the test system is blood stream form T. b. brucei parasites overexpressing TbNTR. Description: Susceptibility of blood stream form T. b. brucei with or without elevated TbNTR. The class given is cell-based.
Data set [11] deals with transgenic T. cruzi parasites expressing firefly luciferase. Kind of data set: In vivo antichagasic activity, acute T. cruzi infected murine model. The conditions noted are these: i.p., 15 mg/kg/day (compound 5: 13 mg/kg/day).
Data set [12] in a line: Caco-2 monolayer permeability. The class given is in vitro ADME. The conditions noted are these: human, Caco-2.
Where [13] appears, read: read-out: T.b.rhod. IC-50, strain STIB 900 trypomastigotes.
Setting [14] is: read-out: T.cruzi IC-50, strain Tulahuen C4 amastigotes.

T1 sequence (Q7Z1V1 whole entry): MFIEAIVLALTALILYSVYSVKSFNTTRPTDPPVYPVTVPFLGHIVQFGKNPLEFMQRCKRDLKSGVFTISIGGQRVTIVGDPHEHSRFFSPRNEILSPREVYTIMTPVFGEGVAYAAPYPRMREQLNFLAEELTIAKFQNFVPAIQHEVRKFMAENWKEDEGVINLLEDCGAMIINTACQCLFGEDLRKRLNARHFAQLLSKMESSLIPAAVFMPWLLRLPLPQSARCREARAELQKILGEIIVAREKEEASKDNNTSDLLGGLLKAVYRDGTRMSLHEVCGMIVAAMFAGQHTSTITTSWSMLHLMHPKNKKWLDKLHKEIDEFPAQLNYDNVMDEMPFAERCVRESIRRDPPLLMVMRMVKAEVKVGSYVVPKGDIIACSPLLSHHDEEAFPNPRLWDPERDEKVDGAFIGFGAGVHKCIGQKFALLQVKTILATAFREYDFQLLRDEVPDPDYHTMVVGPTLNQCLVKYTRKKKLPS

On to `O=C(Cn1cnc([N+](=O)[O-])n1)c1ccc(F)cc1F` [Compound 10, 1-(2,4-difluorophenyl)-2-(3-nitro-1H-1,2,4-triazol-1-yl)ethan-1-one], for which, in [1], the “antichagasic activity class (TDR criteria)” value (“antichagasic activity class” below) was “active” and the Bnz/comp worked out at 1.29.
Regarding “1-(4-phenylphenyl)-2-(1H-1,2,4-triazol-1-yl)ethan-1-one [Compound 11]”, the values for the IC50 in data set [2] (setting [13]), in data set [1] (setting [14]) and in data set [3] were 1750 nM, 188 nM and 220 µM, respectively. Also, the “SI (IC50 in L6 cells/IC50 in T.b. rhodesiense)” value in data set [2] (selectivity index vs L6 cells) was determined as 125. Besides, the “antichagasic activity class” value in data set [1] is reported as “active”. Also, the Bnz/comp in data set [1] worked out at 11.9. In [1], the “SI (IC50 in L6 cells/IC50 in T. cruzi)” value is on record as 1164.
Regarding `CC(O)(Cn1cnc([N+](=O)[O-])n1)c1ccc(-c2ccccc2)cc1` (stereo not shown) [Compound 17, 1-(3-nitro-1H-1,2,4-triazol-1-yl)-2-(4-phenylphenyl)propan-2-ol], the Bnz/comp in data set [1] amounted to 21.94.
In the case of `O=C(Cn1ccnc1[N+](=O)[O-])NCc1ccccc1` [Bnz, N-benzyl-2-(2-nitro-1H-imidazol-1-yl)acetamide], the “cure rates, acute phase” value in the data set with Chagas disease (acute phase of Chagas disease) is recorded as 65-80%. Moreover, the “cure rates, chronic stage” value with Chagas disease was 15-30%.
Take `O=[N+]([O-])c1ncn(CCCNS(=O)(=O)c2ccc(Cl)s2)n1` [Compound 23]: the IC50 in [4] (setting [13]) is 1990 nM; in data set [5] (setting [14]), 438 nM; in [6], 244 µM. In addition, in data set [4] (selectivity index vs L6 cells), the “SI (IC50 in L6 cells/IC50 in T.b. rhodesiense)” value is 122. Also, the Bnz/comp in data set [5] (fold potency against T. cruzi relative to Bnz) is 3.6. Besides, the “SI (IC50 in L6 cells/IC50 in T. cruzi)” value in [5] (selectivity index vs L6 cells) is 556. The PSA in data set [7] is 122.7 Å^2.
On to `O=C(Cn1cnc([N+](=O)[O-])n1)Nc1ccc(N2CCCCC2)cc1` [Compound 9, 2-(3-nitro-1H-1,2,4-triazol-1-yl)-N-(4-(piperidin-1-yl)phenyl)acetamide], for which the “anti-HAT activity class (TDR criteria)” value in data set [2] was “inactive”. Also, in [1], the “antichagasic activity class” value is recorded as “active” and the Bnz/comp came out at 3.66.
Consider `Fc1ccc(C2(Cn3cncn3)Cn3ccnc3O2)c(F)c1` (stereo not shown) [Compound 20, 1-{[2-(2,4-difluorophenyl)-2H,3H-imidazo[2,1-b][1,3]oxazol-2-yl]methyl}-1H-1,2,4-triazole], for which, in data set [1], the “fold less potent against T. cruzi than 18” value was “about 5 fold”, the Bnz/comp worked out at 0.35 and the “SI (IC50 in L6 cells/IC50 in T. cruzi)” value is above 49.4.
For the compound `Cc1nc(-c2cccc(NC(=O)Cn3cnc([N+](=O)[O-])n3)c2)cs1` [Compound 8, N-(3-(2-methylthiazol-4-yl)phenyl)-2-(3-nitro-1H-1,2,4-triazol-1-yl)acetamide], in data set [1], the “antichagasic activity class” value is recorded as “active” and the Bnz/comp amounted to 3.67.
`O=[N+]([O-])c1ncn(CC(O)(Cn2cncn2)c2ccc(-c3ccccc3)cc2)n1` (stereo not shown) [Compound 19, 1-(3-nitro-1H-1,2,4-triazol-1-yl)-2-(4-phenylphenyl)-3-(1H-1,2,4-triazol-1-yl)propan-2-ol]: the “apparent Kd, fold stronger than fluconazole” value on T. cruzi CYP51 [8] is recorded as 10 fold. Further, the “reversibility of TcCYP51 inhibition” value at T. cruzi CYP51 [9] is “irreversible”. In the data set with Caco-2 cells, the “Caco 2 permeability ranking” value is listed as “high”.
`CC1CS(=O)(=O)CCN1/N=C/c1ccc([N+](=O)[O-])o1` (stereo not shown) [Nfx, 4-(5-nitrofurfurylindenamino)-3-methylthio-morpholine-1,1-dioxide]: the “cure rates, chronic stage” value in the data set on Chagas disease is 15-30%.
`O=C(Cn1cnc([N+](=O)[O-])n1)Nc1nnc(-c2ccc(Cl)cc2)s1` [Compound 4, N-[5-(4-chlorophenyl)-1,3,4-thiadiazol-2-yl]-2-(3-nitro-1H-1,2,4-triazol-1-yl) acetamide]: the “anti-HAT activity class (TDR criteria)” value in data set [2] is given as “did not show any anti-HAT activity”. For the same compound, the Bnz/comp in [1] was 0.04.
As to `N#Cc1ccc(-c2ccc(NC(=O)Cn3cnc([N+](=O)[O-])n3)cc2)cc1` [Compound 2, N-[4-(4-cyanophenyl)phenyl]-2-(3-nitro-1H-1,2,4-triazol-1-yl)acetamide], in [2], the “anti-HAT activity class (TDR criteria)” value is recorded as “active”. The compound also registered a Bnz/comp in data set [1] of 10.77. Also, the “fold more susceptible, TbNTR-overexpressing vs non-induced parasites” value in [10] is recorded as 2 to 3 fold. For the same compound, the “reversibility of TcCYP51 inhibition” value at T. cruzi CYP51 [9] is recorded as “reversible”. Moreover, the “Caco 2 permeability ranking” value in the data set on Caco-2 cells was “high”. Besides, the “parasite levels after 5 days of treatment” value in data set [11] is given as “undetectable levels”.
Consider `Cc1ccc(S(=O)(=O)NC(Cc2ccccc2)Cn2cnc([N+](=O)[O-])n2)cc1` (stereo not shown) [Compound 21, 4-Methyl-N-[1-(3-nitro-1H-1,2,4-triazol-1-yl)-3-phenylpropan-2-yl]benzene-1-sulfonamide], for which, in [1], the “fold less potent against T. cruzi than 17” value is listed as “about 3 fold”, the “antichagasic activity class” value was “active” and the Bnz/comp came to 1.7.
Take `CC[C@@H]([C@H](C)O)n1ncn(-c2ccc(N3CCN(c4ccc(OC[C@@H]5CO[C@@](Cn6cncn6)(c6ccc(F)cc6F)C5)cc4)CC3)cc2)c1=O` [posaconazole]: the treatment failure in the data set with Chagas disease (clinical trials, human patients with chronic Chagas disease) was around 80%.
As for `O=C(Cn1cnc([N+](=O)[O-])n1)Nc1ccc(-c2ccc(Cl)cc2)cc1` [Compound 5, N-(4′-chloro-[1,1′-biphenyl]-4-yl)-2-(3-nitro-1H-1,2,4-triazol-1-yl)acetamide], the “factor of increased efficacy against T. cruzi compared to analog 2” value in data set [1] came to 3 fold. For the same compound, the “parasite levels after 5 days of treatment” value in [11] is “undetectable levels”.
For the compound `Nc1nc(N)nc(Nc2ccc([As]3SCC(CO)S3)cc2)n1` (stereo not shown) [Melars., Melarsoprol, reference compound], in data set [2] (Trypanosoma brucei, RHODESIENSE|STIB900, read-out: T.b.rhod. IC-50), the IC50 worked out at 7 ± 1 nM.
Consider `O=C(Cn1cnc([N+](=O)[O-])n1)Nc1nc(-c2ccc(F)c(F)c2)cs1` [Compound 6, N-(4-(3,4-difluorophenyl)thiazol-2-yl)-2-(3-nitro-1H-1,2,4-triazol-1-yl)acetamide], for which, in data set [2], the “anti-HAT activity class (TDR criteria)” value is “inactive”. Moreover, in data set [1], the “antichagasic activity class” value was “active” and the Bnz/comp came to 4.42.
As for `O=C(Cn1cnc([N+](=O)[O-])n1)Nc1nc(-c2ccc(Cl)cc2)cs1` [Compound 3, N-[4-(4-chlorophenyl)-1,3-thiazol-2-yl]-2-(3-nitro-1H-1,2,4-triazol-1-yl)acetamide], in [1], the “antichagasic activity class” value was “active” and the Bnz/comp is given as 7.24.
As for `CC(O)(Cn1cncn1)c1ccc(-n2ccnc2)cc1` (stereo not shown) [Compound 15, 2-[4-(1H-imidazol-1-yl)phenyl]-1-(1H-1,2,4-triazol-1-yl)propan-2-ol], the “anti-HAT activity class (TDR criteria)” value in [2] is “inactive”.
For `O=C(Cn1ccnc1[N+](=O)[O-])Nc1nc(-c2ccc(F)c(F)c2)cs1` [Compound 7, N-(4-(3,4-difluorophenyl)thiazol-2-yl)-2-(2-nitro-1H-imidazol-1-yl)acetamide], the “anti-HAT activity class (TDR criteria)” value in data set [2] is “inactive”. In [1], the “fold less active against T. cruzi compared to 6” value is listed as “about 8.7 fold”, the “antichagasic activity class” value is given as “borderline active” and the Bnz/comp came out at 0.51.
Regarding `CNC(=C[N+](=O)[O-])NCCSCc1ccc(CN(C)C)o1` [Ranitidine, reference compound], in [12], the Papp A→B at 2 h, 10 µM amounted to 0.24 ×10⁻⁶ cm/s.
On to `O=[N+]([O-])c1ncn(CC(O)(Cn2cncn2)c2ccc(F)cc2F)n1` (stereo not shown) [Compound 18, 2-(2,4-difluorophenyl)-1-(3-nitro-1H-1,2,4-triazol-1-yl)-3-(1H-1,2,4-triazol-1-yl)-propan-2-ol], for which, in data set [1], the “fold less potent against T. cruzi than 19” value turned out to be 36 fold, the “fold more potent against T. cruzi than fluconazole” value stood at 8.5 fold and the Bnz/comp came out at 1.81.
Turning to `CC(O)(Cn1cnc([N+](=O)[O-])n1)c1ccc(-n2ccnc2)cc1` (stereo not shown) [Compound 14, 2-[4-(1H-imidazol-1-yl)phenyl]-1-(3-nitro-1H-1,2,4-triazol-1-yl)propan-2-ol], in data set [1], the “fold less potent against T. cruzi than 17” value worked out at 32 fold, the “antichagasic activity class” value was “active” and the Bnz/comp came to 0.68.
As to `CC(O)(Cn1cncn1)c1ccc(-c2ccccc2)cc1` (stereo not shown) [Compound 16, 2-(4-phenylphenyl)-1-(1H-1,2,4-triazol-1-yl)propan-2-ol], the “anti-HAT activity class (TDR criteria)” value in [2] is “inactive”. For the same compound, in [1], the “fold less potent against T. cruzi than 17” value was 7 fold, the “antichagasic activity class” value was “active” and the Bnz/comp turned out to be 3.17.
